Publication PMC6270814, “Effects of Ursolic Acid Derivatives on Caco-2 Cells and Their Alleviating Role in Streptozocin-Induced Type 2 Diabetic Rats” (Molecules, 2014)

What was measured:
[1] = tested on: STZ-induced diabetic rats; assay: Fasting blood glucose in STZ-induced diabetic rats, 4 weeks treatment; type: in vivo, rat; details: STZ diabetic rats; for effect on lowering fasting blood glucose levels: 100 mg/kg, 4 weeks; for Fasting Blood Glucose Level, Week 0: Week 0 (before treatment), glibenclamide 10 mg/kg; for Fasting Blood Glucose Level, Week 0 / Fasting Blood Glucose Level, Week 1 / Fasting Blood Glucose Level, Week 2 / Fasting Blood Glucose Level, Week 3 / Fasting Blood Glucose Level, Week 4: compounds 100 mg/kg, n = 6; for Fasting Blood Glucose Level, Week 1 / Fasting Blood Glucose Level, Week 2 / Fasting Blood Glucose Level, Week 3 / Fasting Blood Glucose Level, Week 4: glibenclamide 10 mg/kg daily
Method: Adult male albino rats of Sprague-Dawley rats (180–220 g) were obtained from the Guangdong Medical Lab Animal Center, and maintained under standard laboratory conditions in a temperature (25–30 °C) and light-controlled (12-h light/dark cycle) room with 35%–60% humidity. The animals were acclimatized for 10 days before the experiments and provided with rodent chow and water ad libitum. The investigation was conducted in accordance with the Guide for the Care and Use of Laboratory Animals and approved by the institutional Animal Ethics Committee.
(§1) Diabetes was induced by a single intraperitoneal injection of streptozotocin (Sigma-Aldrich, St. Louis, MO, USA) at a dose of 65 mg/kg body weight. STZ was dissolved in 0.1 M cold citrate buffer, pH 4.5. Control group were injected with citrate buffer alone. After 7 days for the development of diabetes, plasma glucose levels were determined of each rat. Rats with fasting blood glucose (FBG) range of above 16.7 mmol/L were considered as DM rats and were used for further study.
(§2) According to the body weight and plasma glucose levels the rats were divided randomly into seven groups with six rats each and treated as follows: • Group I: Normal rats treated with 0.5% CMC-Na (2 mL/200 g body weight). • Group II: Diabetic rats treated with 0.5% CMC-Na. • Group III: Diabetic rats treated with 10 mg/kg of glibenclamide. • Group IV: Diabetic rats treated with 100 mg/kg of compound 1 (UA). • Group V: Diabetic rats treated with 100 mg/kg of compound 10. • Group VI: Diabetic rats treated with 100 mg/kg of compound 11. • Group VII: Diabetic rats treated with 100 mg/kg of compound 12.
(§3) The treatment was continued daily for 28 days. Blood glucose levels and body weight were measured every week to ascertain the status of diabetes. After 4 weeks of treatment, the animals were fasted for 12 h and sacrificed by cervical dislocation under mild anaesthetization, blood was collected into heparinized tubes and centrifuged at 2,000 rpm for 10 min. Livers and kidneys were removed, washed and homogenized in ice-cold normal saline. This homogenates were centrifuged at 3,000 rpm for 10 min at 4 °C, and the supernatants were collected for the estimate of antioxidant markers.
(§4) Fasting blood glucose levels were estimated on days 0, 7, 14, 28 with the single touch glucometer (Life Scan, Johnson & Johnson Company, New Brunswick, NJ, USA). Serum insulin level was measured by use of a commercial immunoassay kit by enzyme linked immunosorbent assay (Uscn. Life Science Inc., Wuhan, China). Serum total protein, albumin, triglycerides (TG), total cholesterol (TC), high-density lipoprotein cholesterol (HDL-C), and low-density lipoprotein cholesterol (LDL-C) were measured with an automatic biochemical analyzer (Sinnowa D240, Nanjing, China).

[2] = tested on: STZ-induced diabetic rats; assay: Body weight and daily food intake of STZ-induced diabetic rats; type: in vivo, rat; details: compounds 100 mg/kg, glibenclamide 10 mg/kg, oral
Method: as §1, §2, §3

[3] = tested on: STZ-induced diabetic rats; assay: Serum biochemical parameters (insulin, total protein, albumin) in STZ-induced diabetic rats; type: in vivo, rat; details: 4 weeks, compounds 100 mg/kg, glibenclamide 10 mg/kg
Method: as §1, §2, §3, §4

Caco-2 cells [4] = assay: MTT cytotoxicity assay on Caco-2 cells; type: cell-based, Human; details: Homo sapiens, 24 h, mean ± SD, n = 4, read-out: Inhibition Rate %
Method: Human intestinal Caco-2 cells (ATCC, Rockville, MD, USA) were incubated at 37 °C in a humidified atmosphere of 5% CO2 in air. The cells were cultured in Dulbecco’s […] medium (DMEM) with 10% heat-inactivated fetal bovine serum, 1% non-essential amino acids, 1% L-glutamine, 1% penicillin/streptomycin (Gibco Life Technologies, Grand Island, NY, USA). The cells were sub-cultured at confluence by 0.05% trypsin-0.5 mM EDTA treatment before they were applied in the experiment.
A MTT test was conducted to determine the possible toxicity of UA and its derivatives to Caco-2 cells. Briefly, cells were seeded at a density of 1 × 10^4 cells/mL in a 96-well plate and incubated for 24 h. The next day, cells were incubated with vehicle (0.1% DMSO) and compounds at 100, 50, 25, 12.5 μmol/L for 24 h, and then 5 g/L MTT solution (20 μL) was added for 4 h. Absorbance at 570 nm was measured using a Multimodel Plate Reader (Infinite 200, Tecan, Mannedorf, Switzerland).

[5] = tested on: STZ-induced diabetic rats; assay: Oxidative stress markers (GSH, SOD, MDA) in liver and kidney of STZ-induced diabetic rats; type: in vivo, rat; details: 4 weeks; for GSH level in kidney: kidney of STZ diabetic rats
Method: as §1, §2, §3
The tissue homogenates of liver and kidney were used for the estimate of antioxidant markers. Glutathione (GSH) level was measured with 5, 5'-dithiobis-(2-nitrobenzoic acid) (DTNB) as described by Sedlak and Lindsay. Superoxide dismutase (SOD) activity was assessed according to the method of Sinha. Malondialdehyde (MDA) activity was estimated with the thiobarbituric acid method.

Caco-2 cells [6] = assay: 2-NBDG glucose uptake by Caco-2 cell monolayers, Na+-independent (sodium free buffer); type: cell-based, Human; details: 100 μM compound, Na+-independent (KCl/K2HPO4 buffer)
Method: Caco-2 cells, which were derived from human colon adenocarcinoma, were selected for intestinal absorption studies because these cells express the morphological characteristics and most of the functional properties of differentiated small-intestinal enterocytes. Caco-2 cells were seeded on 24-well plates at the density of 2 × 10^5 cells/well. The medium was changed every 1–2 days, and the culture was carried out for 13 days. Then Caco-2 cells were placed in serum-free media for 24 h and then they were washed twice with Hanks’ balanced salt solution (HBSS, pH 7.5, 140 mM NaCl, 5 mM KCl, 1.2 mM Na2HPO4, 2 mM CaCl2, 1.2 mM MgSO4, 20 mM HEPES, 0.2% bovine serum albumin) before the uptake studies. When a sodium free buffer was required, NaCl and Na2HPO4 were replaced with equal amounts of KCl and K2HPO4, respectively. After washing, the cells were incubated for 15 min at room temperature in HBSS before the commencement of this experiment. The uptake studies were initiated by adding HBSS containing either control or test solution (100 μM) and […] (100 μM) for 30 min at 37 °C. Glucose uptake was stopped by adding twofold volume of ice-cold PBS and the wells were washed with ice-cold PBS three times. Fluorescent intensity was measured by a Multimodel Plate Reader (Tecan Infinity 200) with the 485 nmex and 535 nmemiss filter set before and after adding 2-NBDG. Then the cells were lysed in 200 μL lysis buffer (10 mM Tris-HCl pH = 7.4, 150 mM NaCl, 1% Triton-x-100, 1 mM EDTA, 0.1% SDS) and supplemented immediately before they were processed with 10 μg/mL PMSF. Cells were allowed to lyse on ice, and then vortexed and sonicated. The lysate was used for protein determination, protein concentrations were determined as described by BCA kit (Boster, Wuhan, China) with bovine serum albumin as standard.

SGLT-1 = assay: Western blot of SGLT-1 protein expression in Caco-2 cells; type: cell-based, Human; details: 100 μM, 6 h
Method: Caco-2 cells were cultured on 6-well plates at a density of 1 × 10^6 cells/well for 13 days. The cells were placed in serum-free medium for 24 h prior to the treatment. Then UA and its derivatives (100 μM) were added, after 6 h incubation, the cells were immediately washed three times with ice-cold PBS and lysed in 200 μL lysis buffer. Cells were allowed to lyse on ice, and then scraped, vortexed, sonicated and stored at −80 °C for further analysis. Protein concentrations were determined as described and cell lysate was subjected to western blot analysis. Briefly, proteins with same amount were denatured in sample buffer, separated on 8% SDS-PAGE gel, and transferred onto a polyvinylidene diflouride membrane. […] Membranes were then incubated overnight at 4 °C in blocking buffer with antibodies for GLUT-2, SGLT-1 and β-actin (EMD, Millipore, Billerica, MA, USA). Membranes were washed with TBST and incubated 1 h with appropriate secondary antibodies. Revelation was performed by using the enhanced chemiluminescence reagent and blue-light sensitive film. Densitometric analysis of films was performed with a Hewlett-Packard scanner equipped with a transparent adaptor and UN-SCAN-IT software.

Compound: C[C@H]1[C@H](C)CC[C@]2(C(=O)O)CC[C@]3(C)C(=CC[C@@H]4[C@@]5(C)CC[C@H](O)C(C)(C)[C@@H]5CC[C@]43C)[C@H]12 [Compound 1, Ursolic acid]
- effect on lowering fasting blood glucose levels [1]: no significant effect
- Fasting Blood Glucose Level, Week 0 [1]: 342.00 ± 19.08 mg/dL
- Fasting Blood Glucose Level, Week 1 [1]: 405.00 ± 17.46 mg/dL
- Fasting Blood Glucose Level, Week 2 [1]: 392.40 ± 13.32 mg/dL
- Fasting Blood Glucose Level, Week 3 [1]: 379.80 ± 19.44 mg/dL
- Fasting Blood Glucose Level, Week 4 [1]: 396.00 ± 16.92 mg/dL
- daily food intake vs untreated diabetic rats [2]: no obvious decrease
- serum albumin level vs diabetic control [3]: no appreciable improvement
- serum insulin level vs diabetic control [3]: non-significant effect
- serum total protein level vs diabetic control [3]: no appreciable improvement
- inhibition at 100 µM (Caco-2 cells [4]): 9.88 ± 6.51%
- GSH level in kidney [5]: great effect
- MDA level in the liver ([5]; liver of STZ diabetic rats, daily administration): obviously down-regulated

Compound: O=C(CCc1ccc(O)cc1)c1c(O)cc(O)cc1O[C@@H]1O[C@H](CO)[C@@H](O)[C@H](O)[C@H]1O [Phlorizin, reference compound]
- glucose uptake, % of the control value (Na+-independent) (Caco-2 cells [6]): 75 % of the control value
- inhibition at 100 µM (Caco-2 cells [4]): 7.7 ± 3.91%

Compound: CC(=O)O[C@H]1CC[C@@]2(C)C(CC[C@]3(C)C2CC=C2C4[C@@H](C)[C@H](C)CC[C@]4(C(=O)Nc4ccccc4Br)CC[C@]23C)C1(C)C (stereo partly shown) [Compound 8]
- inhibition at 100 µM (Caco-2 cells [4]): 9.86 ± 2.68%

Compound: CC(C)C(=O)O[C@H]1CC[C@@]2(C)C(CC[C@]3(C)C2CC=C2C4[C@@H](C)[C@H](C)CC[C@]4(C(=O)O)CC[C@]23C)C1(C)C (stereo partly shown) [Compound 12]
- effect on lowering fasting blood glucose levels [1]: no significant effect
- Fasting Blood Glucose Level, Week 0 [1]: 325.80 ± 14.58 mg/dL
- Fasting Blood Glucose Level, Week 1 [1]: 392.40 ± 36.54 mg/dL
- Fasting Blood Glucose Level, Week 2 [1]: 379.80 ± 30.60 mg/dL
- Fasting Blood Glucose Level, Week 3 [1]: 408.60 ± 20.52 mg/dL
- Fasting Blood Glucose Level, Week 4 [1]: 432.00 ± 28.26 mg/dL
- effect on protein expression of SGLT-1 (SGLT-1): significantly reduce
- daily food intake vs untreated diabetic rats [2]: no obvious decrease
- serum albumin level vs diabetic control [3]: no appreciable improvement
- serum insulin level vs diabetic control [3]: non-significant effect
- serum total protein level vs diabetic control [3]: no appreciable improvement
- inhibition at 100 µM (Caco-2 cells [4]): 7.67 ± 5.36%
- GSH level in kidney [5]: great effect

Compound: CC(=O)O[C@H]1CC[C@@]2(C)C(CC[C@]3(C)C2CC=C2C4[C@@H](C)[C@H](C)CC[C@]4(C(=O)Nc4ccc(Br)cc4)CC[C@]23C)C1(C)C (stereo partly shown) [Compound 5]
- inhibition at 100 µM (Caco-2 cells [4]): 8.72 ± 1.18%

Compound: CC(=O)O[C@H]1CC[C@@]2(C)C(CC[C@]3(C)C2CC=C2C4[C@@H](C)[C@H](C)CC[C@]4(C(=O)O)CC[C@]23C)C1(C)C (stereo partly shown) [Compound 9]
- inhibition at 100 µM (Caco-2 cells [4]): 4.4 ± 3.09%
